Consider two compounds from US20250249060A1, “APPLICATION METHOD OF ACTIVE PORTION OF LIGUSTICUM CHUANXIONG IN PREPARATION OF ANTI-GOUT DRUG” (Shaanxi University of Chinese Medicine, priority 2024, published 2025).

Data set [1] concerns acute gouty arthritis mice. Nature of the data set: Paw swelling degree in MSU-induced acute gouty arthritis mice. Type of data set: in vivo. Here is the method:
Livers of the mice are taken and kept in a temperature of −80° C. for later use. The normal control group of mice is injected with 0.1 mL of physiological saline onto right foot pad of the mice after 1 h gavage on the 7th day. […] 0 h, 4 h, 8 h, 12 h and 24 h after the MSU crystal suspension injection, paw volumes of the mice are measured by using the paw volume measuring instrument, the paw swelling degrees of the mice are calculated, and the calculation formula is as follows: [formula] • where Ct represents a paw volume at different time points after injection, and Co represents a paw volume at 0 h after injection.

Data set [2] can be described thus: Body weight gain of mice before and after treatment. Particulars: allopurinol 40 mg/kg·d, colchicine 1 mg/kg·d, extract 500 mg/kg·d.
Data set [3] deals with xanthine oxidase (XOD, or XO) (Homo sapiens, UniProt P47989). Nature of the data set: Inhibitory effect of extracts/liquid-liquid extracts on XOD activity in vitro (96-well plate, absorbance at 295 nm). Type of data set: biochemical. Particulars: tested samples as 1 mg/mL solution, allopurinol positive control 2 mg in 1 mL DMSO + 8 mL PBS. Here is the method: 2.1 Buffer solution preparation: 0.4780 g of potassium phosphate monobasic (KH2PO4), 3.473 g of dipotassium hydrogen phosphate trihydrate (K2HPO4·3H2O) and 10.00 milligrams (mg) of ethylenediaminetetraacetic acid disodium salt (EDTA-2Na) are accurately weighed, and then placed in a 250 mL volumetric flask, and diluted to volume with distilled water to obtain the buffer solution. 2.2 Substrate preparation: 3.65 mg of xanthine is accurately weighed, and then added into the buffer solution to dilute to volume of 50 mL, and the xanthine is dissolved with ultrasound to obtain the substrate. 2.3 Enzyme solution preparation: XOD (5 units abbreviated as U) is taken and diluted with 50 mL of the buffer solution to obtain a diluted solution, and the diluted solution is subpackaged in sample bottles to obtain the enzyme solution, and kept in a temperature of −70 Celsius degree (° C.) for later use. […] After that the solution is filtered with a microporous filter membrane to obtain the samples to be tested for later use. 2.6 XOD activity determination: […] […] 2.8 A half maximal inhibitory concentration (IC50) value measurement: the active portion is prepared into 7 series concentrations to explore a dose-effect relationship based on results of the activity test, and IC50 value of the active portion is calculated through a GraphPad prism 8 software.

Data set [4] relates to hyperuricemia mice. Nature of the data set: Serum uric acid level in hyperuricemia mice. Type of data set: in vivo. The following applies: gavage 7 days.
Data set [5] has as its target T1, serum XOD (Rattus norvegicus, UniProt P22985).
T1 construct: The activity of the serum XOD of hyperuricemia in rats is measured by using the colorimetry; from tissue; host or cells: serum of hyperuricemia rats
Put plainly: Serum XOD activity in hyperuricemia rats. Type of data set: in vivo. The following applies: model group 30 U/L.

Chain of xanthine oxidase (XOD, or XO) (P47989 whole entry, species assumed): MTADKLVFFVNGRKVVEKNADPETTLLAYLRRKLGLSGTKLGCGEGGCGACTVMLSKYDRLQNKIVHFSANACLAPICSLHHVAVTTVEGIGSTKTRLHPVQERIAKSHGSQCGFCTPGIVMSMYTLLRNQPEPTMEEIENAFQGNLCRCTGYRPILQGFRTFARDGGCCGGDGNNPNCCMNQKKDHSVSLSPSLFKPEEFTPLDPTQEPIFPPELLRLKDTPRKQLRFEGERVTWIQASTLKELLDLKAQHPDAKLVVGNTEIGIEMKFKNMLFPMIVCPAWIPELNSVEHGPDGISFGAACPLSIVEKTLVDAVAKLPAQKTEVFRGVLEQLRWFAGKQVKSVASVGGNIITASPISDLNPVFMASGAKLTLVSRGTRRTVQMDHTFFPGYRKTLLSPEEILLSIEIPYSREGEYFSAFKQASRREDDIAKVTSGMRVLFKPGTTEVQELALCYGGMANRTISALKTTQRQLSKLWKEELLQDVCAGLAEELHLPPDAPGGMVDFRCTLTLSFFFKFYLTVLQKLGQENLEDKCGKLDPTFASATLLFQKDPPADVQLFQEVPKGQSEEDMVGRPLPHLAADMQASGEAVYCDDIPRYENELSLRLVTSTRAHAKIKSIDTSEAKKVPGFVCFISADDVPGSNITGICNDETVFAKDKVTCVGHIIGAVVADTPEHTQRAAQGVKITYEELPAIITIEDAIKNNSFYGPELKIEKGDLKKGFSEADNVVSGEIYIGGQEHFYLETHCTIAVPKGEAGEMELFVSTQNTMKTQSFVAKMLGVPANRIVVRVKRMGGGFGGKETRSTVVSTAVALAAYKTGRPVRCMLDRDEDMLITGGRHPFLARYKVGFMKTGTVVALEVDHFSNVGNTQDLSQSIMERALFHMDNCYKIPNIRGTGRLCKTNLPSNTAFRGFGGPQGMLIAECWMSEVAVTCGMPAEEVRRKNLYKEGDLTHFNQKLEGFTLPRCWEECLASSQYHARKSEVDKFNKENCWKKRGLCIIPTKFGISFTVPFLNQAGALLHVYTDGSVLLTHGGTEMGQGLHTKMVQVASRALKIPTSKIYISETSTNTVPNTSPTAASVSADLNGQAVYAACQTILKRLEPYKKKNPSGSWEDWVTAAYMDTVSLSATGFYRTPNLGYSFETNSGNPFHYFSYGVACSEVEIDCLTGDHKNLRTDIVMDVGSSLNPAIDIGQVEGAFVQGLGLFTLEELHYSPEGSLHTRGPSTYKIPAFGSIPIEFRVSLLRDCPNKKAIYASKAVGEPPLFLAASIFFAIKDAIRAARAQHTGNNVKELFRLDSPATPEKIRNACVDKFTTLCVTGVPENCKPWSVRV
T1 sequence (P22985 whole entry): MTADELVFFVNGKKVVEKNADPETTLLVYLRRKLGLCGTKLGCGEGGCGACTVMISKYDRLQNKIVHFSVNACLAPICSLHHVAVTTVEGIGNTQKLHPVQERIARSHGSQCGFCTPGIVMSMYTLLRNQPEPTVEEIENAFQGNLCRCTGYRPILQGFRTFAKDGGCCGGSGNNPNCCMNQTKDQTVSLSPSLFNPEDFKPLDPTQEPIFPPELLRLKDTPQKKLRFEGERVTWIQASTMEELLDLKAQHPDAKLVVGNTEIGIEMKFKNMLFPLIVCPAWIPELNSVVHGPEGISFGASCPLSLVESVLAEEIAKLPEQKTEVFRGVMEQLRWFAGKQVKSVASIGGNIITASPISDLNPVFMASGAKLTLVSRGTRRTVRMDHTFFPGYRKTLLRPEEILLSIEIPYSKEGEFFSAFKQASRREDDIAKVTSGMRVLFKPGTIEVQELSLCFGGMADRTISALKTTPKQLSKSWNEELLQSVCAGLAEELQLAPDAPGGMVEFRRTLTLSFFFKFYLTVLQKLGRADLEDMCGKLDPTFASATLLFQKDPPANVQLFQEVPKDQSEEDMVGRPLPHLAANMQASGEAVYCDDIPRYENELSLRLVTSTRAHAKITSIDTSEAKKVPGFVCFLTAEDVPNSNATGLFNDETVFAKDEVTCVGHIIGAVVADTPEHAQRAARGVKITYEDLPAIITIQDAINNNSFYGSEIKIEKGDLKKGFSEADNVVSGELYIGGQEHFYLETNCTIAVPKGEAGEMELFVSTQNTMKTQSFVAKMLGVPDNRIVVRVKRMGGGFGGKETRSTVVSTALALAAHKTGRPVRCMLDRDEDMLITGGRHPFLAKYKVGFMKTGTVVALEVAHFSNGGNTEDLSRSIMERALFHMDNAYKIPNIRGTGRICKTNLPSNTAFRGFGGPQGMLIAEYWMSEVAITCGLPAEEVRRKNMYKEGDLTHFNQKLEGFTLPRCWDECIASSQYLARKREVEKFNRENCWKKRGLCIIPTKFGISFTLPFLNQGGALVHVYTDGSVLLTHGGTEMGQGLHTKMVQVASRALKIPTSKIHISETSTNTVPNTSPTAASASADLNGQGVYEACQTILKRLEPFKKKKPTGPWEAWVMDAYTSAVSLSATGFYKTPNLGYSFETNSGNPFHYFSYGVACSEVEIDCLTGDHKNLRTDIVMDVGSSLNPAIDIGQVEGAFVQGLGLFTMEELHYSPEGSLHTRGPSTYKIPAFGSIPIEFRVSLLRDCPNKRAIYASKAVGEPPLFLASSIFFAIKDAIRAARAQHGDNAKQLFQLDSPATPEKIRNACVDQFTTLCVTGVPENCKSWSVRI

Turning to `COc1cc2c(c(OC)c1OC)-c1ccc(OC)c(=O)cc1[C@@H](NC(C)=O)CC2` [colchicine], the “decrease of paw swelling degree compared with the model group” value is on record as 15.32% in data set [1] (24 h after MSU injection); “more than 9%” in data set [1] (at 4 h, 8 h, 12 h and 24 h). The “weight gain compared to the normal control group” value in data set [2] is given as “significantly lower”.
For the compound `Oc1ncnc2[nH]ncc12` [allopurinol], in data set [3], the “inhibition rate on activity of the XOD” value was 96.78%. The “decrease of serum uric acid level compared to the model group” value in data set [4] worked out at 75.16%. Also, the “serum uric acid level” value in data set [4] (model 286.82 μmol/L) was 68.72 µmol/L. Further, the “serum XOD activity compared to the model group” value in data set [5] is “significantly decreases”.
